Drawing on ChEMBL document CHEMBL5726641, “Inhibitors of lysine methyl transferase” (2017), this text covers IC50 for nine compounds.

The target in this test is Histone-lysine N-methyltransferase EZH2 (Homo sapiens, UniProt Q15910, Y641F). The test can be described thus: Biological Assay: EZH2 Histone Methyl Transferase Assay: The effectiveness of compounds of the present invention as inhibitors of histone methyl transferases can be readily tested by assays known to those skilled in the art. For example, in vitro histone methyl transferase assays may be conducted with a relevant purified histone methyl transferase and an appropriate synthetic substrate to determine the inhibitory activity of the compounds. Assays for inhibition of EZH2 by the instant compounds were performed in 384-well plates with reaction mixtures containing 350 nM of histone peptide substrate (ATKAAR-K(Me2)-SAPATGGVKKPHRYRPG-GK(Biotin), 500 nM S-[methyl-3H]adenosyl-L-methionine (55-85 Ci/mmol), 50 mM Tris-HCl (pH 9.0), 50 mM NaCl, 1 mM dithiothreitol, Tween-20 at 0.01% and fatty-acid free bovine serum albumin at 0.01%, and recombinant EZH2-641F complex (EZH2 Y641F/EED/SUZ12/RbAp48/AEBP2) at 5 nM (>98% purity, BPS Bioscience) or 15 nM (50% purity, in-house). Reaction mixtures were incubated at room temperature for 3 hours, and the reactions were terminated by 0.005% poly-L-lysine solution in 20 mM Tris-HCl (pH 7.5) and 150 mM NaCl. Reaction products were captured by binding to strepavidin-conjugated imaging beads. Incorporation of radioactive methyl group into the histone peptide substrate was determined in Leadseeker (GE Healthcare) by means of scintillation proximity assay. For orientation: SPA uses beads or plates that emit light when radiolabelled molecules are held near them.
Sequence of Histone-lysine N-methyltransferase EZH2 (Q15910 whole entry Y641F): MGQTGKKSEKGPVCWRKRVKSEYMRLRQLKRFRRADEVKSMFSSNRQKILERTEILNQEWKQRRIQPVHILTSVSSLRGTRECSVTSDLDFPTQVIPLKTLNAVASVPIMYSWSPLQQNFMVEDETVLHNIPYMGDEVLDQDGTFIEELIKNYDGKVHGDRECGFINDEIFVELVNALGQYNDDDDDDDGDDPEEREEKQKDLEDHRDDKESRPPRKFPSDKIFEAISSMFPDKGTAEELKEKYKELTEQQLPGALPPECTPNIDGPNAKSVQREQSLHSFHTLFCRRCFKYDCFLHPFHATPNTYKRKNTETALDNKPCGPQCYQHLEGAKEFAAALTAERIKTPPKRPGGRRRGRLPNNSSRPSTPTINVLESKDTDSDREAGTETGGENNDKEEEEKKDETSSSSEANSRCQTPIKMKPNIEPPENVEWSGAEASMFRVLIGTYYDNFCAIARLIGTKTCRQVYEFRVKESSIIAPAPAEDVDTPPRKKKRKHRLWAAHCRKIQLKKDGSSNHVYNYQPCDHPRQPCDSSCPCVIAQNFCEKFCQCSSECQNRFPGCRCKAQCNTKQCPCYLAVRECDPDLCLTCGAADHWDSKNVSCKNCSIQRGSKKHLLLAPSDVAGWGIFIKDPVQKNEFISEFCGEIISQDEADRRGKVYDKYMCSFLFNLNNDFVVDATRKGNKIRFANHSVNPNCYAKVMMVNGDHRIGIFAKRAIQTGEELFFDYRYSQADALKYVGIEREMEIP
In the case of `C=C(C)C1(C)Cc2cc(C(=O)NCc3c(C)cc(C)[nH]c3=O)cc(-c3ccc(N4CCNCC4)nc3)c2O1` (centres undefined), the IC50 is less than 500 nM.

Regarding `C=C(C)C1(C)Cc2cc(C(=O)NCc3c(CCC)cc(C)[nH]c3=O)cc(-c3ccc(N4CCNCC4)nc3)c2O1` (centres undefined), the IC50 is less than 500 nM.

Turning to `CCCc1cc(C)[nH]c(=O)c1CNC(=O)c1cc2c(c(-c3ccc(N4CCNCC4)nc3)c1)OC(C)(C(C)C)C2` (centres undefined), the IC50 is less than 500 nM.

For `Cc1cc(C)c(CNC(=O)c2cc3c(c(C(F)(F)F)c2)OC(C)(C)C3)c(=O)[nH]1`, the IC50 was more than 1000 nM.

Turning to `COc1ccc(-c2cc(C(=O)NCc3c(C)cc(C)[nH]c3=O)cc3c2OCC3(C)C)cn1`, the IC50 is more than 1000 nM.

For `COc1ccc(-c2cc(C(=O)NCc3c(C)cc(C)[nH]c3=O)cc3c2OC(C)(C(C)C)C3)cn1` (centres undefined), the IC50 was more than 1000 nM.

Take `Cc1cc(C)c(CNC(=O)c2cc(Br)c3c(c2)OC/C=C\CO3)c(=O)[nH]1`: the IC50 is more than 1000 nM.

As for `C=C(C)C1(C)Cc2cc(C(=O)NCc3c(CCC)cc(C)[nH]c3=O)cc(-c3cnc(N4CCNCC4)nc3)c2O1` (centres undefined), the IC50 was less than 500 nM.

With `CCC1COc2cc(C(=O)NCc3c(C)cc(C)[nH]c3=O)cc(-c3ccc(N4CCNCC4)nc3)c2O1` (centres undefined), the 50% inhibitory concentration (IC50) is more than 1000 nM.

In general, IC50 refers to the concentration needed to halve the response being measured.
